{"source": "patent US20160361380A1", "about": "“COMBINATION COMPOSITIONS FOR TREATING DISORDERS REQUIRING REMOVAL OR DESTRUCTION OF UNWANTED CELLULAR PROLIFERATIONS” (Nymox Corporation, priority 2015, published 2016)", "assay_type_in_all_cases": "in vivo, human", "key": {"[1]": {"system": "patients with benign prostatic hyperplasia (BPH)", "test": "Double-blind BPH study, single intraprostatic injection followed by conventional oral BPH medications, IPSS (Example One)", "settings": "NTP peptide plus additional oral medication vs placebo plus additional oral medication", "excerpt": "In a study of 97 patients who had or had not previously ever taken conventional approved oral medications for their benign prostatic hyperplasia (BPH), the patients received a double-blind single injection of a specific peptide described by the amino acid sequence Ile-Asp-Gln-Gln-Val-Leu-Ser-Arg-Ile-Lys-Leu-Glu-Ile-Lys-Arg-Cys-Leu (hereinafter “DRUG”) (n=61) or vehicle alone (placebo) (n=36) and were followed clinically for 2-5 years. Patients with BPH were given an intraprostatic injection of either a) DRUG in phosphate buffered saline pH 7.2 (“PBS”) or b) PBS alone, under double-blind conditions by a urologist in an office setting under ultrasound guidance. Patients were followed for 2 to 5 years with regular physical examinations, laboratory tests, and evaluations of symptoms. […]\nSymptomatic evaluation was measured by the International Prostate Symptom Score (IPSS) which is a quantitative scale used to gauge prostatic symptomatic improvement or worsening. The IPSS quantifies the following: 1) incomplete bladder emptying after urination; 2) frequent urination; 3) stopping and starting during urination; 4) urgent need to urinate; 5) weakness of urinary stream; 6) need to push or strain during urination; 7) need to urinate after going to sleep at night (nocturia). […]"}, "patients with BPH": {"system": "patients with BPH", "test": "Cross-over study: BPH patients on PBS plus oral medication, then additional DRUG injection, IPSS (Example Three)", "settings": "same patients after cross-over to DRUG vs PBS + oral medication", "experimental": "In another study, patients with BPH were given an intraprostatic injection of PBS pH 7.2 vehicle alone, under double-blind conditions by a urologist in an office setting under ultrasound guidance. Patients were followed for 1 to 3 years with regular physical examinations, laboratory tests, and evaluations of symptoms. Patients who received PBS vehicle alone injections and who subsequently received in addition conventional oral medications used to treat BPH such as alpha blockers were assessed before and after receiving an additional injection of DRUG in phosphate buffered saline pH 7.2 (“PBS”). Symptomatic evaluation was measured by the International Prostate Symptom Score (IPSS) which is a quantitative scale used to gauge prostatic symptomatic improvement or worsening. The difference from baseline IPSS was compared in patients who were given blinded PBS only plus conventional oral medications vs results in the same patients on oral medications after cross-over to DRUG."}, "[2]": {"system": "patients with BPH not previously on conventional oral medications", "test": "BPH study in patients never before on oral BPH medications, injection then oral medications, Symptom Score (Example Two)", "experimental": "In a study of 30 patients who had not previously ever taken conventional approved oral medications for their BPH, the patients received a double-blind single injection of DRUG (n=21) or vehicle alone (placebo) (n=9) and were followed clinically for 2-5 years. Patients from both of the above drug and vehicle only placebo groups who had not previously received conventional oral medications and subsequently went on conventional oral medications were evaluated for their responses to the conventional oral BPH medications."}, "[3]": {"system": "patients with BPH who subsequently underwent surgical treatment", "test": "BPH study: single injection, subsequent surgical treatment, Symptom Score (Example Four)", "excerpt": "973 patients who had not previously ever undergone surgical procedures for their BPH (including all types of surgical procedures such as transurethral resection of the prostate, laser ablation, microwave, needle ablation, and other minimally invasive surgical treatments) received a double-blind single injection of DRUG or vehicle alone (placebo) and were followed clinically for 2-5 years. All (N=58) patients from the above drug and vehicle alone placebo groups who had not previously undergone surgical treatment for their BPH and who subsequently underwent surgical treatment for their BPH (N=58) were then evaluated for their responses to the surgical procedures."}}, "note": "Ends that are not written are not given here."}
{"sequence": "IDQQVLSRIKLEIKRCL [DRUG]", "values": [{"measurement": "Mean IPSS Improvement, when compared to the control", "setting": "[1]", "value": "about 40%"}, {"measurement": "Mean IPSS Improvement, when compared to the control", "setting": "patients with BPH", "value": "about 110%"}, {"measurement": "Mean IPSS Improvement, when compared to the control", "setting": "[2]; naive patients, NTP peptide then oral medication vs placebo then oral medication", "value": "about 221%"}, {"measurement": "mean improvement in Symptom Score", "setting": "[2]; oral-medication-naive patients, single injection then conventional oral BPH medication, 2-5 years, n=21", "value": 7.48, "unit": "points"}, {"measurement": "Mean IPSS Improvement, when compared to the control", "setting": "[3]; NTP peptide prior to surgical treatment vs placebo prior to surgery", "value": "about 142%"}, {"measurement": "mean improvement in Symptom Score after surgery", "setting": "[3]; single injection, subsequent surgical treatment for BPH, n=31", "value": 15.3, "unit": "points"}]}
